Measurements published in patent US11820756B2, “Bradykinin B2 receptor antagonists” (Pharvaris Netherlands B.V., priority 2017, dated 2023).

Biological target: T1, human bradykinin B2 receptor (hB2R) (Homo sapiens, UniProt P30411)
T1 sequence (P30411 1-391): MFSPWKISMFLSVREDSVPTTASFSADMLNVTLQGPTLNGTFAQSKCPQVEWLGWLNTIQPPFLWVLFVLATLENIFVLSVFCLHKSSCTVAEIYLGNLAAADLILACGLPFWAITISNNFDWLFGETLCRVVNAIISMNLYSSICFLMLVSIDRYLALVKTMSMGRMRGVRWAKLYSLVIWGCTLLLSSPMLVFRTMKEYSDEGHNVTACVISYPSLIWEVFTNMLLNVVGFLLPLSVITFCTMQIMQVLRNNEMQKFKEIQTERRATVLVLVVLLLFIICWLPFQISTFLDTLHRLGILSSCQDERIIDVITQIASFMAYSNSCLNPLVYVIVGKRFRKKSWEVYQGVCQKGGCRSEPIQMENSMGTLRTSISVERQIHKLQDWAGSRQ
Test: cell-based human bradykinin B2 receptor calcium mobilization (hB2R-CaM) assay
Settings: HTS041C cells, bradykinin at EC80, calcium mobilization; read-out: IC50-value towards human bradykinin B2 receptor (hB2R)
Excerpt: The following cell-based human bradykinin B2 receptor calcium mobilization (hB2R-CaM) assay was used to determine the antagonistic activity of compounds selected from the example compounds Nos. 1 to 168 towards human bradykinin B2 receptor (hB2R). The assay is defined herein as a standard in vitro B2 receptor activity assay, which can be used to determine IC50 values of the compounds according to the present invention, e. g. the compounds shown in Examples 1-11.
The antagonistic activity of compounds according to the present invention was investigated with the hB2R-CaM assay using the B2 Bradykinin Receptor Stable Cell Line HTS041C (Eurofins, St. Charles MO) and the FLIPR Calcium 6 Assay Kit (Molecular Devices, Wokingham, UK) according to the instructions of the providers. CaM assay measurements were performed with a Flexstation 3 System (Molecular Devices) which allows the precise addition of compounds (B2R antagonists) and bradykinin (B2R agonist) to the cells and adjacent continuous recording of the time-dependent CaM assay signals.
HTS041C cells were cultured in high glucose DMEM cell culture medium (Lonza) supplemented with 10% heat-inactivated FBS (PAN Biotech), 10 mM HEPES, Penicillin/Streptomycin (200 U/mL, 200 μg/mL), 1× non-essential amino acids (Lonza), and 250 μg/mL G418 (Invivogen) in cell incubator at 37° C. in a 5% CO2 atmosphere.
One day before the CaM assay experiments cells were seeded in 200 μL DMEM cell culture medium with reduced FBS (5%) and without G418 on clear bottom black 96 well plates (ThermoFisher #165305). Cell starvation was carried out by incubation (37° C., 5% CO2) of 70.000 cells/well for 24 h to 28 h. Immediately prior calcium dye-loading the medium was carefully aspirated and cells were washed with Hank's balanced salt solution (HBSS, Gibco) containing Ca^2+, Mg^2+ and 20 mM HEPES, adjusted to pH 7.4 (HBSS+). Calcium Dye Loading of the Cells:
For calcium dye-loading one FLIPR 6 assay aliquot was dissolved in 20 mL HBSS+. 150 μL of the dye loading solution was added to cell plate and incubated for 120 min at 37° C. and 5% CO2. After dye loading the cell plate was immediately transferred to the pre-warmed (37° C.) Flexstation 3 System for CaM assaying.
Freshly prepared compound (B2 receptor antagonists) dilution series (8 pt, n=2) and bradykinin (B2 receptor agonist) solution in non-binding plates (Costar) were transferred to the Flexstation System (source plate) shortly before starting the experiment. Bradykinin was added in EC80 concentration determined in n>3 preliminary experiments with 8 pt concentration response curves (n=8)). CaM assay was executed by Flexstation 3 System starting with recording of calcium-sensitive dye fluorescence in bottom-read Flex modus with ex/em=485 nm/525 nm, cut off(em)=[…]. After 20 s, 50 μL of 4-fold concentrated compound dilutions were added to the cells resulting in a final DMSO (Sigma) concentration of 0.1% in the cell plate. CaM signals were monitored for 80 s after additions for detection of potential agonistic activities. Prior to bradykinin stimulus compound- and vehicle-treated cells were incubated for 25 min at 37° C. within the Flexstation System. Then 50 μL of a 5-fold concentrated bradykinin solution (HBSS+, 0.1% DMSO) was added to trigger CaM signals (Read out: Max-Min values) which were measured for 80 s post bradykinin stimulus.
IC50 determinations were performed by 4 parameter logistic model curve fitting of the 8 pt (n=2) compound concentration response curves using XLFIT (IDBS) software.
Relative IC50 values of the test compounds were determined with the same hB2R-CaM assay as in Example 12.

IC50 [nM]	SMILES
≤ 50	Cc1cc(-c2ncnn2C)c2cccc(OCc3c(Cl)cc(F)cc3[C@H](C)NC(=O)c3cccnc3)c2n1 [Compound 162]
≤ 50	[2H]C([2H])([2H])[C@H](NC(=O)c1cocn1)c1cc(F)cc(Cl)c1COc1cccc2c(-c3ncnn3C)cc(C)nc12 [Compound 200]
≤ 50	Cc1cc(-n2cc(F)cn2)c2cccc(OCc3c(Cl)cc(F)cc3[C@H](C)NC(=O)C3(C)CCCO3)c2n1 (stereo partly drawn) [Compound 110]
≤ 50	[2H]C([2H])([2H])[C@]([2H])(NC(=O)c1cocn1)c1cc(F)cc(Cl)c1COc1cccc2c(-c3ncnn3C)cc(C)nc12 [Compound 201]
≤ 50	Cc1cc(-n2ncnc2C)c2cccc(OCc3c(Cl)cc(F)cc3[C@H](C)NC(=O)c3cc(C)on3)c2n1 [Compound 158]
≤ 50	CC[C@H](NC(=O)c1ccon1)c1cc(F)cc(Cl)c1COc1cccc2c(-c3ncnn3C)cc(C)nc12 [Compound 150]
≤ 50	[2H][C@@](C)(NC(=O)CC(F)F)c1cc(F)cc(Cl)c1COc1cccc2c(-c3ncnn3C)cc(C)nc12 [Compound 210]
≤ 50	Cc1cc(-n2cc(F)cn2)c2cccc(OCc3c(Cl)cc(F)cc3[C@H](C)NC(=O)c3cccnc3)c2n1 [Compound 124]
51 to 250	Cc1cc(-n2cc(F)cn2)c2cccc(OCc3c(Cl)cc(F)cc3[C@H](C)NC(=O)c3ccncc3)c2n1 [Compound 125]
≤ 50	[2H][C@@](C)(NC(=O)c1cocn1)c1cc(F)cc(Cl)c1COc1cccc2c(-n3ncnc3C)cc(C)nc12 [Compound 198]
≤ 50	CC[C@H](NC(=O)c1cocn1)c1cc(F)cc(Cl)c1COc1cccc2c(-c3ncnn3C)cc(C)nc12 [Compound 155]
≤ 50	Cc1cc(-c2ccnn2C)c2cccc(OCc3c(Cl)cc(F)cc3[C@H](C)NC(=O)C(F)F)c2n1 [Compound 176]
≤ 50	[2H][C@@](C)(NC(=O)c1cocn1)c1cc(F)cc(Cl)c1COc1cccc2c(-c3ncnn3C)cc(C)nc12 [Compound 199]
≤ 50	Cc1cc(-n2ncnc2C)c2cccc(OCc3c(Cl)cc(F)cc3[C@H](C)NC(=O)c3coc(C)n3)c2n1 [Compound 156]
≤ 50	Cc1cc(-n2ncnc2C)c2cccc(OCc3c(Cl)cc(F)cc3[C@H](C)NC(=O)CC(F)(F)F)c2n1 [Compound 179]
≤ 50	Cc1cc(-n2ncnc2C)c2cccc(OCc3c(Cl)cc(F)cc3[C@H](C)NC(=O)C(C)(C)O)c2n1 [Compound 160]
51 to 250	Cc1cc(-n2cc(F)cn2)c2cccc(OCc3c(Cl)cc(F)cc3[C@H](C)NC(=O)c3ccccn3)c2n1 [Compound 123]
≤ 50	Cc1cc(-c2ncnn2C)c2cccc(OCc3c(Cl)cc(F)cc3[C@H](C)NC(=O)COC(F)(F)F)c2n1 [Compound 116]
≤ 50	Cc1cc(-c2[nH]ncc2C)c2cccc(OCc3c(Cl)cc(F)cc3[C@H](C)NC(=O)COC(F)F)c2n1 [Compound 185]
≤ 50	Cc1cc(-c2ncc(C#N)n2C)c2cccc(OCc3c(Cl)cc(F)cc3[C@H](C)NC(=O)C(C)F)c2n1 (stereo partly drawn) [Compound 207]
≤ 50	Cc1cc(-c2ncnn2C)c2cccc(OCc3c(Cl)cc(F)cc3[C@H](C)NC(=O)c3coc(C)n3)c2n1 [Compound 130]
≤ 50	[2H][C@@](C)(NC(=O)COC(F)F)c1cc(F)cc(Cl)c1COc1cccc2c(-n3ncnc3C)cc(C)nc12 [Compound 168]

More lines, now with the values behind:

SMILES	IC50 [nM]
Cc1cc(-c2ncnn2C)c2cccc(OCc3c(Cl)cc(F)cc3[C@H](C)NC(=O)[C@@H](C)O)c2n1 [Compound 63]	≤ 50
Cc1cc(-n2ncnc2C)c2cccc(OCc3c(Cl)cc(F)cc3[C@H](C)NC(=O)c3cnco3)c2n1 [Compound 95]	≤ 50
Cc1cc(-n2cc(F)cn2)c2cccc(OCc3c(Cl)cc(F)cc3[C@H](C)NC(=O)[C@@H](O)CN)c2n1 [Compound 21]	251 to 1000
Cc1cc(-n2cc(F)cn2)c2cccc(OCc3c(Cl)cc(F)cc3[C@H](C)NC(=O)C(C)(C)C(F)(F)F)c2n1 [Compound 48]	51 to 250
Cc1cc(-n2cc(F)cn2)c2cccc(OCc3c(Cl)cc(F)cc3[C@H](C)NC(=O)C3CN(C)C3)c2n1 [Compound 65]	251 to 1000
Cc1cc(-n2cc(F)cn2)c2cccc(OCc3c(Cl)cc(F)cc3[C@H](C)NC(=O)C(C)OCC3CC3)c2n1 (stereo partly drawn) [Compound 51]	51 to 250
CCOCC(=O)N[C@@H](C)c1cc(F)cc(Cl)c1COc1cccc2c(-c3ncnn3C)cc(C)nc12 [Compound 84]	≤ 50
Cc1cc(-n2cc(F)cn2)c2cccc(OCc3c(Cl)cc(F)cc3[C@H](C)NC(=O)C[C@@H](C)O)c2n1 [Compound 26]	≤ 50
CC[C@@H](O)C(=O)N[C@@H](C)c1cc(F)cc(Cl)c1COc1cccc2c(-n3cnc(C)n3)cc(C)nc12 [Compound 100]	251 to 1000
Cc1cc(-n2cc(F)cn2)c2cccc(OCc3c(Cl)cc(F)cc3[C@H](C)NC(=O)c3c(C)noc3C)c2n1 [Compound 87]	51 to 250
Cc1cc(-n2cc(F)cn2)c2cccc(OCc3c(Cl)cc(F)cc3[C@H](C)NC(=O)c3cocn3)c2n1 [Compound 82]	≤ 50
[2H]C([2H])([2H])[C@]([2H])(NC(=O)COC(F)F)c1cc(F)cc(Cl)c1COc1cccc2c(-c3ncnn3C)cc(C)nc12 [Compound 11A, N-[(1S)-1-[3-chloro-5-fluoro-2-({[2-methyl-4-(1-methyl-1H-1,2,4-triazol-5-yl)quinolin-8-yl]oxy}methyl)phenyl](1,2,2,2-^2H4)ethyl]-2-(difluoromethoxy)acetamide]	≤ 50
CO[C@H](C)C(=O)N[C@@H](C)c1cc(F)cc(Cl)c1COc1cccc2c(-n3cc(F)cn3)cc(C)nc12 [Compound 17]	≤ 50
CC[C@@H](O)C(=O)N[C@@H](C)c1cc(F)cc(Cl)c1COc1cccc2c(-n3nccn3)cc(C)nc12 [Compound 34]	51 to 250
CO[C@@H](C)C(=O)N[C@@H](C)c1cc(F)cc(Cl)c1COc1cccc2c(-n3nccn3)cc(C)nc12 [Compound 29]	≤ 50
CC[C@H](O)C(=O)N[C@@H](C)c1cc(F)cc(Cl)c1COc1cccc2c(-n3nccn3)cc(C)nc12 [Compound 33]	51 to 250
Cc1cc(-n2cc(F)cn2)c2cccc(OCc3c(Cl)cc(F)cc3[C@H](C)NC(=O)[C@@H]3COC(C)(C)O3)c2n1 [Compound 61]	≤ 50
Cc1cc(-n2cc(F)cn2)c2cccc(OCc3c(Cl)cc(F)cc3[C@H](C)NC(=O)C3CCC(C)(C)O3)c2n1 (stereo partly drawn) [Compound 109]	51 to 250
Cc1cc(-n2cc(F)cn2)c2cccc(OCc3c(Cl)cc(F)cc3[C@H](C)NC(=O)[C@@](C)(O)C(F)(F)F)c2n1 [Compound 52]	251 to 1000
Cc1cc(-n2cc(F)cn2)c2cccc(OCc3c(Cl)cc(F)cc3[C@H](C)NC(=O)[C@@H](O)CCN)c2n1 [Compound 66]	51 to 250
Cc1cc(-n2cc(F)cn2)c2cccc(OCc3c(Cl)cc(F)cc3[C@H](C)NC(=O)[C@@H]3CCOC3)c2n1 [Compound 19]	≤ 50
CC[C@H](O)C(=O)N[C@@H](C)c1cc(F)cc(Cl)c1COc1cccc2c(-n3cc(F)cn3)cc(C)nc12 [Compound 25]	51 to 250
Cc1cc(-n2cc(F)cn2)c2cccc(OCc3c(Cl)cc(F)cc3[C@H](C)N(C)C(=O)C(C)(C)O)c2n1 [Compound 101]	≤ 50
